# Laboratory results from paper PMC5320518, “Novel Liver-targeted conjugates of Glycogen Phosphorylase Inhibitor PSN-357 for the Treatment of Diabetes: Design, Synthesis, Pharmacokinetic and Pharmacological Evaluations” (Scientific Reports, 2017).
# Columns and labels:
# [1] = target: T1, rabbit muscle GPa (RMGPa) (Oryctolagus cuniculus, UniProt P00489); test: RMGPa inhibition assay (phosphate release from glucose-1-phosphate); type: biochemical; settings: mean ± S.D. of three determinations; NI means no inhibition
# T1 sequence (P00489 2-843 limits assumed): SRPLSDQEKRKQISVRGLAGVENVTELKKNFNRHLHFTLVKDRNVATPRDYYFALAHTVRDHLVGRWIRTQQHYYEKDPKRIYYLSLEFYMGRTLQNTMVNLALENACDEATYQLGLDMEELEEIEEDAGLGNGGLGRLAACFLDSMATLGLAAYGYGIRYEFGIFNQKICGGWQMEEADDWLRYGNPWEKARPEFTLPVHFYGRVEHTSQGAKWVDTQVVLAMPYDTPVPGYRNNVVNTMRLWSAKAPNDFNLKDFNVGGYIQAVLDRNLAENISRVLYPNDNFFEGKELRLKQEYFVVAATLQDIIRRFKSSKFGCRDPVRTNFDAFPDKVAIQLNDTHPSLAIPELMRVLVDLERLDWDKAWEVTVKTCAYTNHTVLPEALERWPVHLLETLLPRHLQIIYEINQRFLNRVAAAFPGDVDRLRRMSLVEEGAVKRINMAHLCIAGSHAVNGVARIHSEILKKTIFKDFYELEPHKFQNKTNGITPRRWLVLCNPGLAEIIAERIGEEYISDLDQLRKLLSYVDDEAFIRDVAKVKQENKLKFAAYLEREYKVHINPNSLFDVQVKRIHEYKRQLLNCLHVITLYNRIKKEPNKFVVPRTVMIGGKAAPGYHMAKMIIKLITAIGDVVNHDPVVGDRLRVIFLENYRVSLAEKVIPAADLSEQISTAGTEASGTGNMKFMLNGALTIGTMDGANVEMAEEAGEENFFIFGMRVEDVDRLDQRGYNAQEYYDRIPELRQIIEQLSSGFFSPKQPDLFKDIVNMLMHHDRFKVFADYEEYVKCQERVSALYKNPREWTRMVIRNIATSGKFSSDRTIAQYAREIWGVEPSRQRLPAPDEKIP
# Description: All the compounds were evaluated for their inhibitory activity against rabbit muscle GPa (RMGPa). The activity of RMGPa was measured through detecting the release of phosphate from glucose-1-phosphate in the direction of glycogen synthesis. CP-91149, a well-known allosteric GP inhibitor, which shares the same binding site with PSN-357, was used as the positive control and the results are summarized in Table 1[21]. […] This remarkable loss of activity was probably due to the direct steric interference by such bulky substituent of cholic acid group. […] The results is consistent with the SARs of PSN-357 that the hydroxyl of piperidine is not an essential group for the GP inhibitory activity that could be modified slightly.
# The inhibitory activity of the test compounds against rabbit muscle glycogen phosphorylase a (GPa) was monitored using microplate reader (BIO-RAD) based on the published method. In brief, GPa activity was measured in the direction of glycogen synthesis by the release of phosphate from glucose-1-phosphate. Each test compound was dissolved in DMSO and diluted at different concentrations for IC50 determination. The enzyme was added into 100 μL of buffer containing 50 mM Hepes (pH = 7.2), 100 mM KCl, 2.5 mM MgCl2, 0.5 mM glucose-1-phosphate, 1 mg/mL glycogen and the test compound in 96-well microplates (Costar). After the addition of 150 μL of 1 M HCl containing 10 mg/mL ammonium molybdate and 0.38 mg/mL malachite green, reactions were run at 22 °C for 25 min, and then the phosphate absorbance was measured at 655 nm. The IC50 values were estimated by fitting the inhibition data to a dose-dependent curve using a logistic derivative equation.
# [2] = Stability in mouse liver microsomes (MLM); type: in vitro ADME; settings: for CLint scaled at 10 μM / half-life at 10 μM / microsomal CLint at 10 μM: C57BL/6, pH 7.4, n = 3
# Description: Additionally, the compounds’ stability in microsome were evaluated by measuring the rate of compounds consumpation in MLM and the results are shown in Table 3.
# The microsomal pellet was suspended in potassium phosphate buffer (100 mM, pH 7.4), 10 μM test compound or positive control (diclofenac) was added. Liver microsomes from C57BL/6 mice (BD Gentest) were pooled. The mixture of microsome solution and compound was incubated at 37 °C for about 10 min in the presence of a NADPH-regenerating system, consisting of 0.02 M DL-isocitric acid (trisodium salt), 0.1 mg/mL isocitrate dehydrogenase and 1 mM NADPH. The addition of ice-cold CH3CN (including 100 ng/mL tolbutamide as internal standard) terminated the reaction. The mixture was vortexed for approx (30 s), centrifuged (20 min, 4000 rpm) and the supernatant was collected and analysed by LC-MS/MS method.
# [3] = Stability in mouse plasma; type: in vitro ADME; settings: 2 μM, 37 °C, 120-min test
# Description: Frozen plasma from male C57 BL/6 mice was incubated for 5 min at 37 °C before the addition of the test compound. Then prepared 2 μM incubation sample, and aliquots of the incubation mixtures (100 μL) were taken at predetermined time points (10, 30, 60, 120 min) at 37 °C. After incubation, the mixtures was added 400 μL of 50% ACN/50% MeOH containing internal standard (IS, 200 ng/mL Tolbutamide and 20 ng/mL Buspirone) to each sample tube and then centrifuged at 13000 rpm for 8 min. Blank incubations in the absence of the test compound were also performed. The analyses of test compounds were performed by LC-MS/MS analysis.
# [4] = system: leptin-deficient ob/ob mice; test: Glucose lowering in vivo in diabetic ob/ob mice; settings: 50 mg/kg p.o.; for hypoglycemic effect (in words): 0-24 h
# Description: In vivo efficacy of compound PSN-357 and conjugate 6 were studied on leptin-deficient ob/ob mice. Metformin was chosen as a positive control. […] Especially, there was still significant decrease in BG levels by conjugate 6 up to 6 h after administration. The effect might be due to the fact that 6 acts in a sustained release and longer acting manners. It is noteworthy that the findings are highly consistent with the results from in vivo pharmacokinetic studies.
# Five- to six-week old obese, diabetic ob/ob mice (male C57BL/6 J) and their lean, nondiabetic male C57BL/6 J littermates were provided by the Model Animal Research Center of Nanjing University, and housed under standard animal care practices with ad libitum access to food and water throughout the procedures. After 1 week acclimation, blood was collected from the retroorbital sinus for plasma glucose determination, and mice were randomized to groups with similar mean ± SD. Mice were then dosed p.o. daily for 4 days with vehicle consisting of DMSO/PEG400/H-β-CD (1:3:6, v/v/v). On day 5, mice were treated p.o. with PSN-357 (50 mg/kg) or conjugate 6 (50 mg/kg) or vehicle, then bled at 0, 1, 2, 3, 6 and 24 h post-dose for plasma glucose determination. Statistical analysis of the hypoglycemic effect was determined by unpaired t test with the ob/ob mice vehicle treated group.
SMILES,IC50 [1] [µM],metabolic stability in MLM (in words) [2],CLint scaled at 10 μM [2] [mL/min/kg],half-life at 10 μM [2] [h],microsomal CLint at 10 μM [2] [µL/min/mg],degradation in mouse plasma [3] [%],"hypoglycemic effect (in words) ([4]; n = 10, 50 mg/kg)","BG level at largest drop ([4]; at 3 h, p < 0.005)",stability in mouse plasma (in words) [3],hypoglycemic effect (in words) ([4]; n = 10),"blood glucose (BG) nadir ([4]; at 1 h, p < 0.005 vs control ob/ob mice) [mM]"
C[C@H](CCC(=O)N[C@@H](CC(=O)O)C(=O)OC1CCN(C(=O)[C@H](Cc2ccc(F)cc2)NC(=O)c2cc3cc(Cl)ncc3[nH]2)CC1)[C@H]1CC[C@H]2[C@@H]3[C@H](O)C[C@@H]4C[C@H](O)CC[C@]4(C)[C@H]3C[C@H](O)[C@]12C [Conjugate 6],31.2 ± 11.1,considerable metabolic stability,64.9,1.41,16.4,~12,small but significant hypoglycemic effects,around 7.79 mmol/L,,,
O=C(N[C@@H](Cc1ccc(F)cc1)C(=O)N1CCC(O)CC1)c1cc2cc(Cl)ncc2[nH]1 [PSN-357],0.42 ± 0.01,good metabolic stability,< 38,> 2.42,< 9.6,,,,relatively stable,significantly reduc the blood glucose,6.36 ± 1.46
